Reference: patent US20020187514A1 (priority 1999, published 2002)

Legend:
Serotonin, 5HT6 = molecular target: T1, Serotonin, 5HT6 (Homo sapiens, UniProt P50406); assay: biochemical; type: binding; settings: read-out: Pass 1 (10^−5 M) % Inhibition
T1 construct: expressed in transfected cells

Neuropeptide, NPY1 = Neuropeptide, NPY1 (Homo sapiens, UniProt P25929); assay: Neuropeptide, NPY1 (Human); [125I]PYY; type: binding; settings: read-out: Pass 1 (10^−5 M) % Inhibition
Serotonin, 5HT4 = molecular target: T2, Serotonin, 5HT4 (Cavia porcellus, UniProt O70528); assay: biochemical; type: binding; settings: read-out: Pass 1 (10^−5 M) % Inhibition
T2 construct: no other source notation after assay name denotes animal cell or animal tissue source; from tissue; host or cells: animal cell or animal tissue, not specified

Opiate, Kappa 1 = Opiate, Kappa 1 (UniProt P41144); type: binding
Adrenergic, Alpha 1A = Adrenergic, Alpha 1A (UniProt P43140); assay: Adrenergic, Alpha 1A; [3H]-7-MeOxy-Prazosin; type: binding
GABA Transaminase = assay: GABA Transaminase; substrate [14C]-GABA; type: biochemical
Adenosine, A2 = Adenosine, A2 (UniProt P30543); assay: Adenosine, A2; [3H]CGS21680; type: binding
[1] = test system: GABA, Chloride, TBOB Site; type: binding
Dopamine, D1 = Dopamine, D1 (Homo sapiens, UniProt P21728); assay: biochemical; settings: read-out: Pass 1 (10^−5 M) % Inhibition
Adenosine Transporter = Adenosine Transporter (Homo sapiens, UniProt Q99808); assay: biochemical; type: binding; settings: read-out: Pass 1 (10^−5 M) % Inhibition
Calcium Channel, Type N = type: binding
[2] = test system: Glutamate, NMDA, Phencyclidine Site; assay: Glutamate, NMDA, Phencyclidine Site; [3H]TCP; type: binding; settings: 10^−5 M
Serotonin Transporter [3] = molecular target: Serotonin Transporter (Homo sapiens, UniProt P31645); assay: biochemical; settings: read-out: Pass 1 (10^−5 M) % Inhibition
[4] = test system: Inositol Triphosphate, IP3; assay: Inositol Triphosphate, IP3; [3H]IP3; type: binding; settings: 10^−5 M
Leukotrine D4, LTB4 = assay: Leukotrine D4, LTB4; [3H]LTD4; type: binding; settings: 10^−5 M
Dopamine, D4.4 = molecular target: T3, Dopamine, D4.4 (Homo sapiens, UniProt P21917); assay: biochemical; type: binding; settings: read-out: Pass 1 (10^−5 M) % Inhibition
T3 construct: expressed in transfected cells

[5] = molecular target: T4, Monoamine Oxidase B, Peripheral (Rattus norvegicus, UniProt P19643); assay: Monoamine Oxidase B, Peripheral; substrate [14C]Phenylethylamine; type: biochemical; settings: read-out: Pass 1 (10^−5 M) % Inhibition
T4 construct: no other source notation after assay name denotes animal cell or animal tissue source; from tissue

[6] = molecular target: Protein Tyrosine Phosphatase, PTP-CD45 (Homo sapiens, UniProt P08575); assay: Protein Tyrosine Phosphatase, PTP-CD45 (Human); substrate pNPP; type: biochemical; settings: read-out: Pass 1 (10^−5 M) % Inhibition
Vasopressin, V1A = Vasopressin, V1A (Homo sapiens, UniProt P37288); assay: Vasopressin, V1A (Human); [125I]-Via Antagonist; type: binding; settings: read-out: Pass 1 (10^−5 M) % Inhibition
Muscarinic, M5 = molecular target: T5, Muscarinic, M5 (Homo sapiens, UniProt P08912); assay: biochemical; type: binding; settings: read-out: Pass 1 (10^−5 M) % Inhibition
T5 construct: expressed in transfected cells

Sigma 1 = molecular target: T6, Sigma 1 (Cavia porcellus, UniProt Q60492); assay: Sigma 1; [3H]-(+)-Pentazocine; type: binding, guinea pig
T6 construct: Fresh guinea pig whole brain was obtained following decapitation; from tissue; host or cells: guinea pig whole brain membranes

Serotonin, 5HT7 = molecular target: T7, Serotonin, 5HT7 (Homo sapiens, UniProt P34969); assay: biochemical; type: binding; settings: read-out: Pass 1 (10^−5 M) % Inhibition
T7 construct: expressed in transfected cells

Serotonin, 5HT3 = Serotonin, 5HT3 (Mus musculus, UniProt P23979); assay: biochemical; type: binding
Dopamine, D3 = molecular target: T8, Dopamine, D3 (Rattus norvegicus, UniProt P19020); assay: Dopamine, D3 (Rat Recombinant); [3H]7-OH-DPAT; type: binding; settings: read-out: Pass 1 (10^−5 M) % Inhibition
T8 construct: expressed in transfected cells

Esterase = Esterase (Human); substrate Acetylthiocholine; type: biochemical
Serotonin, 5HT2C = Serotonin, 5HT2C (UniProt K7GSR7); type: binding
Dopamine Transporter = Dopamine Transporter (Cavia porcellus, UniProt H0WCX4); assay: biochemical; type: binding, Guinea Pig
Acetylcholinesterase = assay: Acetylcholinesterase; substrate Acetylthiocholine; type: biochemical
[7] = test system: Glutamate, NMDA Agonist Site; assay: Glutamate, NMDA Agonist Site; [3H]CGP 39653; type: binding; settings: 10^−5 M
Estrogen = assay: Estrogen; [125I]3,17B-Estradiol, 16a; type: binding; settings: 10^−5 M
Imidazoline, I1 = assay: Imidazoline, I1; [125I]-Clonidine; type: binding; settings: 10^−5 M
Imidazoline, I2, central = assay: Imidazoline, I2, central; [3H]2-BFI; type: binding; settings: 10^−5 M
[8] = molecular target: Benzodiazepine, peripheral (Homo sapiens, UniProt P30536); assay: biochemical; type: binding; settings: read-out: Pass 1 (10^−5 M) % Inhibition
[9] = test system: Protein Tyrosine Phosphatase, PTP-Cell; assay: Protein Tyrosine Phosphatase, PTP-Cell (Human); substrate pNPP; type: biochemical; settings: 10^−5 M
Serotonin Transporter [10] = molecular target: Serotonin Transporter (Rattus norvegicus, UniProt P31652); assay: biochemical; type: binding; settings: read-out: % Inhibiton (10^−5 M)
Serotonin, 5HT1D = Serotonin, 5HT1D (Homo sapiens, UniProt P28221); assay: biochemical; type: binding; settings: read-out: Pass 1 (10^−5 M) % Inhibition
[11] = molecular target: Protein Phosphatase, PP2A (Homo sapiens, UniProt P67775); assay: Protein Phosphatase, PP2A (Human); substrate DiFMUP; type: biochemical; settings: read-out: Pass 1 (10^−5 M) % Inhibition
Testosterone (cytosolic) = Testosterone (cytosolic) (UniProt P15207); type: binding
Adrenergic, Alpha 2B = Adrenergic, Alpha 2B (UniProt P19328); type: binding
Bradykinin, BK2 = molecular target: T9, Bradykinin, BK2 (Homo sapiens, UniProt P30411); assay: Bradykinin, BK2 (Human recombinant); [3H]-Bradykinin; type: binding; settings: read-out: Pass 1 (10^−5 M) % Inhibition
T9 construct: expressed in transfected cells

[12] = read-out: Pass 1 (10^−5 M) % Inhibition

Chain of Serotonin, 5HT3 (P23979 24-489): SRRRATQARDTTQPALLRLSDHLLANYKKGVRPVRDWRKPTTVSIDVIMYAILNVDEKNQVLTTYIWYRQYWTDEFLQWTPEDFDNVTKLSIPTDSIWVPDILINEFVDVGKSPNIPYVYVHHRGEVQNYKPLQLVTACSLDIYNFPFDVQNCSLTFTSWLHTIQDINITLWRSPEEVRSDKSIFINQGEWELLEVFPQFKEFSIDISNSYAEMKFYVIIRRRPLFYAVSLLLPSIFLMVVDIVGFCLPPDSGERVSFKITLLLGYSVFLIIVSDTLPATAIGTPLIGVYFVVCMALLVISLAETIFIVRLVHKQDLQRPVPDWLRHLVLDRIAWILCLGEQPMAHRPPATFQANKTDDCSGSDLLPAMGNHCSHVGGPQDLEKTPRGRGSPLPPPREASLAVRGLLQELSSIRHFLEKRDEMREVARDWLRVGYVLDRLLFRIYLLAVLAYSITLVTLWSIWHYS
Chain of Dopamine Transporter (H0WCX4 1-619): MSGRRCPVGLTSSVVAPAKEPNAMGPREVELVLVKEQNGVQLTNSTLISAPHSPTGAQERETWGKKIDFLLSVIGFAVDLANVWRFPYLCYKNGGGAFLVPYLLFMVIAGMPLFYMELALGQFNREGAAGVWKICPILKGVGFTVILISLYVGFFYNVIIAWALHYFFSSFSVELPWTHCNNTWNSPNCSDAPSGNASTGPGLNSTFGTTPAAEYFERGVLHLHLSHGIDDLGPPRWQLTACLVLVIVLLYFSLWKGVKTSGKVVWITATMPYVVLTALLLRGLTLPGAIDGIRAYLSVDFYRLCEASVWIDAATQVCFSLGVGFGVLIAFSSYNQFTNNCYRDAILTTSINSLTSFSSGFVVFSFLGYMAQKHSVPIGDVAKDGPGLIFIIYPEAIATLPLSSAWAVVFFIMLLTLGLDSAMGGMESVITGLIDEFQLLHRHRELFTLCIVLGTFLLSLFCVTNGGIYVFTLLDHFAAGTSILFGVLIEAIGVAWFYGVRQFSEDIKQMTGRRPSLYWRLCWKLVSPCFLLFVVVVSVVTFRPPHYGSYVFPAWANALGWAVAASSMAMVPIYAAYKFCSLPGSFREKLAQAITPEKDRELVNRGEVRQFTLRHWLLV
T6 sequence (Q60492 whole entry): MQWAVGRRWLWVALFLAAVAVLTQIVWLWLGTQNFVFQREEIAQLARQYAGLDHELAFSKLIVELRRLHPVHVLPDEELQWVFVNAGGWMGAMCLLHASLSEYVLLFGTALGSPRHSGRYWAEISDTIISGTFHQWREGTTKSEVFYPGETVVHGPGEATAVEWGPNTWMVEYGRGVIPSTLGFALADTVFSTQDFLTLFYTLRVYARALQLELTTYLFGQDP
Chain of Serotonin Transporter (Rattus norvegicus, UniProt P31652) (P31652 whole entry): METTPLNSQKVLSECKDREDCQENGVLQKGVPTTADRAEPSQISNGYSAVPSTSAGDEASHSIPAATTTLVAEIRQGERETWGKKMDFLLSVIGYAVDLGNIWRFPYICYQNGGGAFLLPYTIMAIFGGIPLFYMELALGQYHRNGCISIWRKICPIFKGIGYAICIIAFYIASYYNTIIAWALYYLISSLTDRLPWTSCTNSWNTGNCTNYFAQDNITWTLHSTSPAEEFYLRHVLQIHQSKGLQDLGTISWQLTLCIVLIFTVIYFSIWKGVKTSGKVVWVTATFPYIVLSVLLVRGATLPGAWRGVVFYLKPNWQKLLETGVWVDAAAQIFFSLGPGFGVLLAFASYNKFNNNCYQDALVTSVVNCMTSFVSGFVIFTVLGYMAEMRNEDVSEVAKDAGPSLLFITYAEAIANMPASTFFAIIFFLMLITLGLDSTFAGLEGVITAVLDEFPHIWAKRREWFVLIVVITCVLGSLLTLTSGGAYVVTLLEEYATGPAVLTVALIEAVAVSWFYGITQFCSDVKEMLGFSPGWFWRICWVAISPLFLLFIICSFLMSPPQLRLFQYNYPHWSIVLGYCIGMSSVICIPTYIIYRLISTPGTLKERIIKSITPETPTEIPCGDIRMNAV
Chain of Testosterone (cytosolic) (P15207 whole entry S389L): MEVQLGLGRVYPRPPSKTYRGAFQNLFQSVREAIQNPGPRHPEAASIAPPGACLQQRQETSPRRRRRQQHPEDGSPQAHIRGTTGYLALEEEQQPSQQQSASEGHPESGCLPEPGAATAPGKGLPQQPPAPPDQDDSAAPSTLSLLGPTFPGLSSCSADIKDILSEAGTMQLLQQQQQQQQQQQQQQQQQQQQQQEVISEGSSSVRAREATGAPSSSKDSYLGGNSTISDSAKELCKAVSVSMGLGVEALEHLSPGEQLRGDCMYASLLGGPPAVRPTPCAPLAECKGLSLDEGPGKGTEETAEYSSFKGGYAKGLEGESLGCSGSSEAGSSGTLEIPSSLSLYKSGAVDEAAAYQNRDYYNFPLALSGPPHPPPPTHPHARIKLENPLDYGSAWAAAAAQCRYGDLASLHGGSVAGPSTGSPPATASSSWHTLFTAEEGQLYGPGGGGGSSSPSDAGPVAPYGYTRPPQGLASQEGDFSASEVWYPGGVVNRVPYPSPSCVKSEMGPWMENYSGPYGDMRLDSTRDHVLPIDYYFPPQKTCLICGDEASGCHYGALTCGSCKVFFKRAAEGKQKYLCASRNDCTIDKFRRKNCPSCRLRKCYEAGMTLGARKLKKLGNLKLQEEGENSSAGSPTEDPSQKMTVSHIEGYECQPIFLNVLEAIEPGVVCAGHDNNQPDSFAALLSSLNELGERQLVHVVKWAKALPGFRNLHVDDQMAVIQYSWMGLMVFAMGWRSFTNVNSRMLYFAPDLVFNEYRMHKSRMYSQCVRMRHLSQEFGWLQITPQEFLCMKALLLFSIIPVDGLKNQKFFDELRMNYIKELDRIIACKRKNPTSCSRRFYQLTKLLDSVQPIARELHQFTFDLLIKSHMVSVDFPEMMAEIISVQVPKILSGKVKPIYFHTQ
Chain of Serotonin, 5HT1D (P28221 whole entry): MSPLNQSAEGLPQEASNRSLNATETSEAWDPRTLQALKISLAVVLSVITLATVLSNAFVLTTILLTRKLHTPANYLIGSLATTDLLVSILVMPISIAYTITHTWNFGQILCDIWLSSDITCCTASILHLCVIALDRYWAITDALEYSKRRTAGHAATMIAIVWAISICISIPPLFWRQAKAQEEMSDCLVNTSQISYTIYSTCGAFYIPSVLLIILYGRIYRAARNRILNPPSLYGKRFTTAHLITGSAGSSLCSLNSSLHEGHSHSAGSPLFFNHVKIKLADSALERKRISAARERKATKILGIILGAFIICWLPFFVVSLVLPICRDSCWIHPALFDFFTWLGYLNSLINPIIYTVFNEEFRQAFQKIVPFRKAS
Chain of Protein Phosphatase, PP2A (P67775 whole entry): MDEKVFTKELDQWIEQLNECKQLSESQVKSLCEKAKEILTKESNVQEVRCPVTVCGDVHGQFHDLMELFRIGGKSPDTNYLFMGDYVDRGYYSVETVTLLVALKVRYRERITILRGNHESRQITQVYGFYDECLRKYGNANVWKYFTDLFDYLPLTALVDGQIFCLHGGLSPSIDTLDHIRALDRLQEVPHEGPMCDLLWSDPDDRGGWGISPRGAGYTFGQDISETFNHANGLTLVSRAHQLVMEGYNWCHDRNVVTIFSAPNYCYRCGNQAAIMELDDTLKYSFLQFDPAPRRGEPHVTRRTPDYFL
Chain of Vasopressin, V1A (P37288 whole entry): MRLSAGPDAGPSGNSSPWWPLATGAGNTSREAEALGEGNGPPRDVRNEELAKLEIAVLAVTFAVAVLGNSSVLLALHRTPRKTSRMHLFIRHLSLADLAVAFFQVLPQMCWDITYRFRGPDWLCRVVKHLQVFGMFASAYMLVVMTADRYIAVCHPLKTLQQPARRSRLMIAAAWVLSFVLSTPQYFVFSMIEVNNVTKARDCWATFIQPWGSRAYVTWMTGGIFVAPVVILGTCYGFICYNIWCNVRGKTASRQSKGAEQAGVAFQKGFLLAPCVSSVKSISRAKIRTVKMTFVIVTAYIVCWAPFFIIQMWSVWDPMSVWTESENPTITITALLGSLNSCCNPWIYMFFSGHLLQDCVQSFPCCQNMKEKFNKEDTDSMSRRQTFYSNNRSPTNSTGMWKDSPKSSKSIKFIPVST
T5 sequence (P08912 whole entry): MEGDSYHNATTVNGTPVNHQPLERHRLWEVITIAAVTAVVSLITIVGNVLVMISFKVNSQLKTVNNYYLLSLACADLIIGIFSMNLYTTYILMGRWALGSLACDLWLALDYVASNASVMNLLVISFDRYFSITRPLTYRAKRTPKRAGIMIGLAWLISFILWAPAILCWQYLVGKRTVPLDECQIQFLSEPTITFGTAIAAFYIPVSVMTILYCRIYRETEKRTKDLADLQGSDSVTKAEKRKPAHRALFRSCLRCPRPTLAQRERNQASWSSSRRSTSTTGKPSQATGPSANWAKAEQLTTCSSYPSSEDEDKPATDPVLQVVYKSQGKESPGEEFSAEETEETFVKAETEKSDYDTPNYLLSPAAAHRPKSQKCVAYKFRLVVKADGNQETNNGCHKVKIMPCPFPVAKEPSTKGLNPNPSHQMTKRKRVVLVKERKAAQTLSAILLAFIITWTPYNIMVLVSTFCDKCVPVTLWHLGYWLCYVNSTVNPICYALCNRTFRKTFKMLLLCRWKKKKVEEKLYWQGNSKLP
T4 sequence (P19643 whole entry): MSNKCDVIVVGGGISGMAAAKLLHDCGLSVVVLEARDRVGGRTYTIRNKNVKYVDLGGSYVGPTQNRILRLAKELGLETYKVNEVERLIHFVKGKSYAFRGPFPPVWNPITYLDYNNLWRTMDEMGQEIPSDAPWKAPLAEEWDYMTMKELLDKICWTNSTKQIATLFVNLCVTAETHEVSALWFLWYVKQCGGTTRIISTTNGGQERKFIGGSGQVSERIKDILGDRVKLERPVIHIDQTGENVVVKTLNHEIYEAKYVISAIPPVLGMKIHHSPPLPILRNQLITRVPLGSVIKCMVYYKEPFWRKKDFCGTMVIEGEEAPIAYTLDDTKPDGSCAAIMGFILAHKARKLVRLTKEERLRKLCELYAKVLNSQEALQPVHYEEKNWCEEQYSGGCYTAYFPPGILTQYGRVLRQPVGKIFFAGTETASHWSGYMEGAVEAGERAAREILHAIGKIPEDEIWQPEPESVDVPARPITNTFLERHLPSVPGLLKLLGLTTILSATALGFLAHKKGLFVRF

Which results are given for `COC(=O)[C@H]1[C@@H](OC(=O)c2ccccc2)C[C@@H]2CC[C@H]1N2C` [cocaine]?
inhibition at 10 µM (Serotonin, 5HT6): 1.13%; inhibition at 10 µM (Neuropeptide, NPY1): 26.6%; inhibition at 10 µM (Serotonin, 5HT4): 22.1%; Pass 1 (10^−5 M) % Inhibition (Opiate, Kappa 1): 10.19%; Pass 1 (10^−5 M) % Inhibition (Adrenergic, Alpha 1A): −1.18%; Pass 1 (10^−5 M) % Inhibition (GABA Transaminase): 25.43%; Pass 1 (10^−5 M) % Inhibition (Adenosine, A2): 26.30%; Pass 1 (10^−5 M) % Inhibition [1]: 8.40%; inhibition at 10 µM (Dopamine, D1): 17.5%; inhibition at 10 µM (Adenosine Transporter): 16.5%; Pass 1 (10^−5 M) % Inhibition (Calcium Channel, Type N): 11.51%; Pass 1 (10^−5 M) % Inhibition [2]: 6.63%; inhibition at 10 µM (Serotonin Transporter [3]): 97.5%; Pass 1 (10^−5 M) % Inhibition [4]: −19.14%; Pass 1 (10^−5 M) % Inhibition (Leukotrine D4, LTB4): −17.11%; inhibition at 10 µM (Dopamine, D4.4): 18.8%; inhibition at 10 µM [5]: -22.8%; inhibition at 10 µM [6]: 12%; inhibition at 10 µM (Vasopressin, V1A): -4.37%; inhibition at 10 µM (Muscarinic, M5): 6.01%; Ki (Sigma 1): 11.6 µM; inhibition at 10 µM (Sigma 1; [12]): 64.7%; inhibition at 10 µM (Serotonin, 5HT7): 26.8%; Ki (Serotonin, 5HT3; Pass 3 screening, nine concentrations, read-out: Ki Determination): 3.09 µM; inhibition at 10 µM (Serotonin, 5HT3; [12]): 60.3%; inhibition at 10 µM (Dopamine, D3): 30.2%; Pass 1 (10^−5 M) % Inhibition (Esterase): 31.58%; Pass 1 (10^−5 M) % Inhibition (Serotonin, 5HT2C): 1.44%; Ki (Dopamine Transporter): 0.321 µM; inhibition at 10 µM (Dopamine Transporter; [12]): 91.4%; Pass 1 (10^−5 M) % Inhibition (Acetylcholinesterase): 8.18%; Pass 1 (10^−5 M) % Inhibition [7]: 38.66%; Pass 1 (10^−5 M) % Inhibition (Estrogen): 12.80%; Pass 1 (10^−5 M) % Inhibition (Imidazoline, I1): −0.78%; Pass 1 (10^−5 M) % Inhibition (Imidazoline, I2, central): 37.90%; inhibition at 10 µM [8]: 0.51%; Pass 1 (10^−5 M) % Inhibition [9]: −17.63%; inhibition at 10 µM (Serotonin Transporter [10]): 96.2%; inhibition at 10 µM (Serotonin, 5HT1D): 3.12%; inhibition at 10 µM [11]: 15.3%; Pass 1 (10^−5 M) % Inhibition (Testosterone (cytosolic)): −7.60%; Pass 1 (10^−5 M) % Inhibition (Adrenergic, Alpha 2B): −3.82%; inhibition at 10 µM (Bradykinin, BK2): 4.48%
